What was measured:
caspase 3 = assay: Induction of caspase activity in vivo (DEVDase activity in tumour lysates, RS4;11 xenograft); design: species or system mice (SCID strain); conditions: 100 mg/kg p.o., 16 hours after treatment, RS4;11 tumour lysates, treated mice / control mice
Protocol: The ability of the compounds of formula (I′) to activate caspase 3 is evaluated in a xenograft model of RS4;11 leukaemia cells.
1×10^7 RS4;11 cells are grafted sub-cutaneously into immunosuppressed mice (SCID strain). 25 to 30 days after the graft, the animals are treated orally with the various compounds. Sixteen hours after treatment, the tumour masses are recovered and lysed, and the caspase 3 activity is measured in the tumour lysates.
This enzymatic measurement is carried out by assaying the appearance of a fluorigenic cleavage product (DEVDase activity, Promega). It is expressed in the form of an activation factor corresponding to the ratio between the two caspase activities: the activity for the treated mice divided by the activity for the control mice.
N-(4-Hydroxyphenyl)-3-{6-[((3S)-3-(4-morpholinylmethyl)-3,4-dihydro-2(1H)-isoquinolinyl)carbonyl]-1,3-benzodioxol-5-yl}-N-phenyl-5,6,7,8-tetrahydro-1-indolizine carboxamide (also referred to as the drug from Example 1) was tested. At a dose of 100 mg/kg p.o., the in vivo caspase activation factor is 29.3.

[1] = Pharmacokinetic profile in the Wistar rat, lipid versus aqueous formulation; type: in vivo, male Wistar rats; conditions: Drug from Example 1 administered 100 mg/kg p.o., plasma
Protocol: The pharmacokinetic profile of N-(4-hydroxyphenyl)-3-{6-[((3S)-3-(4-morpholinyl-methyl)-3,4-dihydro-2(1H)-isoquinolinyl)carbonyl]-1,3-benzodioxol-5-yl}-N-phenyl-5,6,7,8-tetrahydro-1-indolizine carboxamide (also referred to as the drug from Example 1) is also evaluated in a lipid and aqueous formulation in the Wistar rat.
The drug from Example 1 is prepared in an aqueous suspension in hydroxyethylcellulose 1% (w/v) in water and compared to a lipid formulation composed of a mixture of anhydrous ethanol/polyethylene glycol 400/Phosal 50PG ([…], v/v/v). The two formulations are administered by the oral route to male Wistar rats (3 rats per formulation) at a dose of 100 mg/kg p.o. (gavage, 10 mL/kg).
Blood samples are taken at the following points in time from each animal (3 animals/point in time): 0.25 hr, 0.5 hr, 0.75 hr, 1 hr, 2 hrs, 4 hrs, 8 hrs and 24 hrs after oral administration.
The plasma concentrations of the tested compound are determined after extraction followed by liquid chromatography coupled with mass spectrometric detection. The limit of quantification is 0.1 ng/mL.

[2] = aqueous formulation (suspension in hydroxyethylcellulose 1% in water)
[3] = lipid formulation (anhydrous ethanol/polyethylene glycol 400/Phosal 50PG)

O=C(c1cc(-c2cc3c(cc2C(=O)N2Cc4ccccc4C[C@H]2CN2CCOCC2)OCO3)n2c1CCCC2)N(c1ccccc1)c1ccc(O)cc1 [Drug from Example 1, N-(4-hydroxyphenyl)-3-{6-[((3S)-3-(4-morpholinylmethyl)-3,4-dihydro-2(1H)-isoquinolinyl)carbonyl]-1,3-benzodioxol-5-yl}-N-phenyl-5,6,7,8-tetrahydro-1-indolizine carboxamide]
in vivo caspase activation factor (caspase 3): 29.3
AUCt, compound measured: Drug from Example 1 [1, 2]: AUCt (ng · h/mL) = 3480
Cmax, compound measured: Drug from Example 1 [1, 2]: Cmax (ng/mL) = 816
AUCt, compound measured: Drug from Example 1 [1, 3]: AUCt (ng · h/mL) = 42900
Cmax, compound measured: Drug from Example 1 [1, 3]: Cmax (ng/mL) = 5070
